This note sets out measurements from patent publication US20240228489A1, “POSITIVE ALLOSTERIC MODULATORS OF THE MUSCARINIC ACETYLCHOLINE RECEPTOR M1” (Vanderbilt University, priority 2021, published 2024).

Assay [1] deals with T1, human mAChR M1 (Homo sapiens, UniProt P11229).
T1 sequence (P11229 1-460): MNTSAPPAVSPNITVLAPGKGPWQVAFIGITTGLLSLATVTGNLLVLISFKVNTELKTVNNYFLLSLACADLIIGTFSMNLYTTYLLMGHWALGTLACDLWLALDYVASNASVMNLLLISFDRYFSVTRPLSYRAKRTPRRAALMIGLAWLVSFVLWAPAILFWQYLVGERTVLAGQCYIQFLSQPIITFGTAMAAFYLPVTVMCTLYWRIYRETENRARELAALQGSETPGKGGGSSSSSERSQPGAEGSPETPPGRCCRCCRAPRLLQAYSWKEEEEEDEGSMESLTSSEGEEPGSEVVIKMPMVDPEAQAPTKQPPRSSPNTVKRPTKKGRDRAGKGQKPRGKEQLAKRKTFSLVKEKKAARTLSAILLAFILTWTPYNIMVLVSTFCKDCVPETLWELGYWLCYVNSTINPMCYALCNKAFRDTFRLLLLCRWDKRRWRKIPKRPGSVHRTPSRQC
Nature of the assay: mAChR M1 cell-based functional assay (calcium mobilization), agonist mode: compound alone, Emax relative to acetylcholine maximum. As to conditions: for EC50 / Agonist Activity Human M1 EC50: human mAChR M1; for Emax: relative to the maximum for acetylcholine; call rule not given here. In a few lines: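 Agonist activity is the concentration-dependent rise in intracellular calcium (Fluo-4, 1 Hz read) after compound addition, measured before any acetylcholine was added, in stable hM1 CHO-K1 cells. Curves were 11-point, 1:3 dilutions fitted by four-parameter logistic. Emax is given as a fraction of maximal acetylcholine response.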
(Calcium flux is commonly read through the fluorescence of an indicator in the cells.)

For assay [2], the target named is T1, human mAChR M1. Nature of the assay: mAChR M1 cell-based functional assay (calcium mobilization), PAM mode: increase in the EC20 acetylcholine response. In a few lines: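 PAM readout is the concentration-dependent rise in the EC20 acetylcholine calcium signal, fitted to a four-parameter logistic (EC50, Emax). Compounds were preincubated from 4 s before ACh at 144 s (EC20) and 230 s (EC80). hM1-expressing CHO-K1 cells loaded with Fluo-4, FDSS ratio read.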

For `[2H]C1([2H])c2ncccc2C(=O)N1Cc1ccc(-c2cnc3nn(C)cc3c2)cc1C` [Compound 34, 6-(2-methyl-4-(2-methyl-2H-pyrazolo[3,4-b]pyridin-5-yl)benzyl)-6,7-dihydro-5H-pyrrolo[3,4-b]pyridin-5-one-7,7-d2], the EC50 (usually the midpoint of the concentration-response curve) at human mAChR M1 [1] is above 10000 nM; on human mAChR M1 [2], 2000 nM. In addition, the Emax (in general, the size of the effect at its maximum, as opposed to the concentration needed) was determined as 3% at human mAChR M1 [1] and 82% on human mAChR M1 [2].
For the molecule `[2H]C1([2H])c2ncccc2C(=O)N1Cc1c(F)cc(-c2cccc3c2cnn3C)cc1F` [Compound 35, 6-(2,6-difluoro-4-(1-methyl-1H-indazol-4-yl)benzyl)-6,7-dihydro-5H-pyrrolo[3,4-b]pyridin-5-one-7,7-d^2], the EC50 is above 10000 nM at human mAChR M1 [1] and 2420 nM on human mAChR M1 [2]. Moreover, the Emax came to 2% at human mAChR M1 [1] and 63% at human mAChR M1 [2].
For `[2H]C1([2H])c2ncccc2C(=O)N1Cc1c(F)cc(-c2ccc(F)c3nn(C)cc23)cc1F` [Compound 36, 6-(2,6-difluoro-4-(7-fluoro-2-methyl-2H-indazol-4-yl)benzyl)-6,7-dihydro-5H-pyrrolo[3,4-b]pyridin-5-one-7,7-d2], on human mAChR M1 [1], the “Agonist Activity Human M1 EC50” value is “Inactive” and the Emax turned out to be 5%. On human mAChR M1 [2], the EC50 came to 476 nM and the Emax came to 84%.
As for `[2H]C1([2H])c2ncccc2C(=O)N1Cc1c(F)cc(-c2c(F)ccc3nn(C)cc23)cc1F` [Compound 37, 6-(2,6-difluoro-4-(5-fluoro-2-methyl-2H-indazol-4-yl)benzyl)-6,7-dihydro-5H-pyrrolo[3,4-b]pyridin-5-one-7,7-d2], on human mAChR M1 [1], the “Agonist Activity Human M1 EC50” value is “Inactive” and the Emax came to 3%. For the same molecule, on human mAChR M1 [2], the EC50 is 2300 nM and the Emax worked out at 64%.
In the case of `[2H]C1([2H])c2ncccc2C(=O)N1Cc1c(F)cc(-c2ccc(OC)c3n[nH]cc23)cc1F` [Compound 38, 6-(2,6-difluoro-4-(7-methoxy-2H-indazol-4-yl)benzyl)-6,7-dihydro-5H-pyrrolo[3,4-b]pyridin-5-one-7,7-d2], the figures for the EC50 on human mAChR M1 [1] and at human mAChR M1 [2] were above 10000 nM and 436 nM, respectively. The Emax at human mAChR M1 [1] was 2%; at human mAChR M1 [2], 69%.
With `[2H]C1([2H])c2ncccc2C(=O)N1Cc1c(F)cc(-c2ccc(OC)c3nn(C)cc23)cc1F` [Compound 39, 6-(2,6-difluoro-4-(7-methoxy-2-methyl-2H-indazol-4-yl)benzyl)-6,7-dihydro-5H-pyrrolo[3,4-b]pyridin-5-one-7,7-d2], on human mAChR M1 [1], the “Agonist Activity Human M1 EC50” value is recorded as “Inactive” and the Emax came out at 9%. In addition, at human mAChR M1 [2], the EC50 is 112 nM and the Emax amounted to 85%.
Turning to `[2H]C1([2H])c2ncccc2C(=O)N1Cc1c(F)cc(-c2ccc(Cl)c3nn(C)cc23)cc1F` [Compound 40, 6-(4-(7-chloro-2-methyl-2H-indazol-4-yl)-2,6-difluorobenzyl)-6,7-dihydro-5H-pyrrolo[3,4-b]pyridin-5-one-7,7-d2], at human mAChR M1 [1], the “Agonist Activity Human M1 EC50” value is on record as “Inactive” and the Emax came to 1%. In addition, at human mAChR M1 [2], the EC50 is 233 nM and the Emax amounted to 66%.
Turning to `[2H]C1([2H])c2ncccc2C(=O)N1Cc1c(F)cc(-c2ccc(C(F)(F)F)c3nn(C)cc23)cc1F` [Compound 41, 6-(2,6-difluoro-4-(2-methyl-7-(trifluoromethyl)-2H-indazol-4-yl)benzyl)-6,7-dihydro-5H-pyrrolo[3,4-b]pyridin-5-one-7,7-d2], on human mAChR M1 [1], the “Agonist Activity Human M1 EC50” value is on record as “Inactive” and the Emax is 2%. Moreover, at human mAChR M1 [2], the EC50 came to 604 nM and the Emax was 65%.
In the case of `[2H]C1([2H])c2ncccc2C(=O)N1Cc1c(F)cc(-c2cccc3nn(CC)cc23)cc1F` [Compound 42, 6-(4-(2-ethyl-2H-indazol-4-yl)-2,6-difluorobenzyl)-6,7-dihydro-5H-pyrrolo[3,4-b]pyridin-5-one-7,7-d2], on human mAChR M1 [1], the EC50 was above 10000 nM and the maximal effect (Emax) turned out to be 13%. Further, on human mAChR M1 [2], the EC50 stood at 371 nM and the Emax came to 81%.
As for `[2H]C1([2H])c2ncccc2C(=O)N1Cc1c(F)cc(-c2cccc3nn(C(C)C)cc23)cc1F` [Compound 43, 6-(2,6-difluoro-4-(2-isopropyl-2H-indazol-4-yl)benzyl)-6,7-dihydro-5H-pyrrolo[3,4-b]pyridin-5-one-7,7-d2], on human mAChR M1 [1], the EC50 was above 10000 nM and the Emax turned out to be 2%. In addition, on human mAChR M1 [2], the EC50 worked out at 1170 nM and the Emax came to 86%.
The like results for `[2H]C1([2H])c2ncccc2C(=O)N1Cc1c(F)cc(-c2cccc3nn(CF)cc23)cc1F` [Compound 44, 6-(2,6-difluoro-4-(2-(fluoromethyl)-2H-indazol-4-yl)benzyl)-6,7-dihydro-5H-pyrrolo[3,4-b]pyridin-5-one-7,7-d2] were, in that order, above 10000 nM, 28%, 413 nM and 78%.
As for `[2H]C1([2H])c2ncccc2C(=O)N1Cc1c(F)cc(-c2ccc(F)c3nn(C([2H])([2H])[2H])cc23)cc1F` [Compound 45, 6-(2,6-difluoro-4-(7-fluoro-2-(methyl-d^3)-2H-indazol-4-yl)benzyl)-6,7-dihydro-5H-pyrrolo[3,4-b]pyridin-5-one-7,7-d2], at human mAChR M1 [1], the “Agonist Activity Human M1 EC50” value was “Inactive” and the Emax was determined as 2%. At human mAChR M1 [2], the EC50 is 411 nM and the Emax was 73%.
Turning to `[2H]C1([2H])c2ncccc2C(=O)N1Cc1ccc(-c2cccc3nn(C([2H])([2H])[2H])cc23)cc1C` [Compound 46, 6-(2-methyl-4-(2-(methyl-d^3)-2H-indazol-4-yl)benzyl)-6,7-dihydro-5H-pyrrolo[3,4-b]pyridin-5-one-7,7-d2], on human mAChR M1 [1], the “Agonist Activity Human M1 EC50” value was “Inactive” and the Emax stood at 9%. Further, on human mAChR M1 [2], the EC50 was found to be 681 nM and the Emax came to 77%.
Taken in the same sequence, the figures for `[2H]C1([2H])c2ncccc2C(=O)N1Cc1ccc(-c2ccc(F)c3nn(C([2H])([2H])[2H])cc23)cc1C` [Compound 47, 6-(4-(7-fluoro-2-(methyl-d3)-2H-indazol-4-yl)-2-methylbenzyl)-6,7-dihydro-5H-pyrrolo[3,4-b]pyridin-5-one-7,7-d2] were “Inactive”, 5%, 900 nM and 76%.
On to `[2H]C1([2H])c2ncccc2C(=O)N1Cc1ccc(-c2ccc(F)c3nn(C)cc23)cc1C` [Compound 48, 6-(4-(7-fluoro-2-methyl-2H-indazol-4-yl)-2-methylbenzyl)-6,7-dihydro-5H-pyrrolo[3,4-b]pyridin-5-one-7,7-d2], for which the EC50 at human mAChR M1 [1] was above 10000 nM; at human mAChR M1 [2] it was 488 nM. The Emax was determined as 9% on human mAChR M1 [1] and 85% at human mAChR M1 [2].
For the molecule `[2H]C1([2H])c2ncccc2C(=O)N1Cc1c(F)cc(-c2cccc3nn(C4COC4)cc23)cc1F` [Compound 49, 6-(2,6-difluoro-4-(2-(oxetan-3-yl)-2H-indazol-4-yl)benzyl)-6,7-dihydro-5H-pyrrolo[3,4-b]pyridin-5-one-7,7-d2], on human mAChR M1 [1], the “Agonist Activity Human M1 EC50” value is recorded as “Inactive” and the Emax was 2%. Further, on human mAChR M1 [2], the 50% effective concentration (EC50) was determined as 848 nM and the Emax stood at 80%.
For `[2H]C1([2H])c2ncccc2C(=O)N1Cc1c(F)cc(-c2cccc3nn(C(F)F)cc23)cc1F` [Compound 50, 6-(4-(2-(difluoromethyl)-2H-indazol-4-yl)-2,6-difluorobenzyl)-6,7-dihydro-5H-pyrrolo[3,4-b]pyridin-5-one-7,7-d2], at human mAChR M1 [1], the “Agonist Activity Human M1 EC50” value was “Inactive” and the Emax was 4%. On human mAChR M1 [2], the EC50 came to 332 nM and the Emax was 85%.
In the case of `[2H]C1([2H])c2ncccc2C(=O)N1Cc1c(F)cc(-c2ccc(OC)c3nn(C([2H])([2H])[2H])cc23)cc1F` [Compound 51, 6-(2,6-difluoro-4-(7-methoxy-2-(methyl-d3)-2H-indazol-4-yl)benzyl)-6,7-dihydro-5H-pyrrolo[3,4-b]pyridin-5-one-7,7-d2], on human mAChR M1 [1], the EC50 is above 10000 nM and the Emax was found to be 8%. For the same molecule, at human mAChR M1 [2], the EC50 came out at 173 nM and the Emax was 89%.
Consider `[2H]C1([2H])c2ncccc2C(=O)N1Cc1c(F)cc(-c2ccc(C)c3nn(C([2H])([2H])[2H])cc23)cc1F` [Compound 52, 6-(2,6-difluoro-4-(7-methyl-2-(methyl-d3)-2H-indazol-4-yl)benzyl)-6,7-dihydro-5H-pyrrolo[3,4-b]pyridin-5-one-7,7-d2], for which, on human mAChR M1 [1], the “Agonist Activity Human M1 EC50” value is “Inactive” and the Emax was 2%. In addition, on human mAChR M1 [2], the EC50 turned out to be 317 nM and the Emax worked out at 85%.
Consider `[2H]C1([2H])c2ncccc2C(=O)N1Cc1ccc(-c2cccc3nn(C([2H])([2H])[2H])cc23)cc1F` [Compound 53, 6-(2-fluoro-4-(2-(methyl-d3)-2H-indazol-4-yl)benzyl)-6,7-dihydro-5H-pyrrolo[3,4-b]pyridin-5-one-7,7-d2], for which, at human mAChR M1 [1], the EC50 is above 10000 nM and the maximal response (Emax) was found to be 9%. Besides, at human mAChR M1 [2], the EC50 stood at 325 nM and the Emax turned out to be 84%.
